Source: patent publication US20130023485A1, “PARENTERAL FORMULATIONS OF PEPTIDES FOR THE TREATMENT OF SYSTEMATIC LUPUS ERYTHEMATOSUS” (Teva Pharmaceutical Industries, Ltd., priority 2003, published 2013)
Read-outs that look alike come from different tables or passages of the source.

Key:
PBL from SLE patients = test: Proliferation of PBL in presence of mAb or peptides (3H-thymidine); assay type: cell-based, human
Procedure: (§1) Peripheral blood lymphocytes (PBL) were isolated from the blood of SLE patients or healthy controls using ficol gradient. Thereafter, the PBL were incubated in the presence of different concentrations of the peptides Ia, IIa or IIIa, or the human 16/6 Id mAb for 24 hr, when a sample was taken for IL-2 measurement. The assay was continued for a total of 7 days, and ^3H-thymidine was added for the last 16 hr. Proliferation was detected by reading the amount of radioactivity incorporated into the DNA of the cells.
(§2) As is seen in Table 14, a lower proportion of the PBL taken from SLE patients reacted to the peptides or to the 16/6 Id mAb, when compared to the healthy controls. The results are expressed in percentage of responder (34% in the first line) and the actual number of patients (11 out of 32: 11/32).

[1] = system: PBL from healthy controls; test: as above; assay type: cell-based, human
Procedure: as §1, §2

[2] = system: antibodies in sera of SLE patients and healthy controls; test: ELISA of sera for antibodies binding plate-coated peptides or mAb; design: species or system human; details: plates coated with 10 μg/ml; FIG. 7
Procedure: Human SLE patients (32 patients) were bled and their sera were tested by ELISA for their ability to bind the peptides Ia, IIa and 111a, a control peptide p195-212 (a myasthogenic peptide described in PCT publication No. WO 94/00148) or mAb 5G12.
Detection of the antibodies was conducted on plates that were coated with 10 μg/ml of peptides Ia, IIa, IIIa, p195-212 or mAb 5G12, in PBS for 2 hr, washed and blocked with 1% ovalbumin in PBS for an additional 2 hr. ELISA was continued as described after blockage in Example 2 of PCT International Publication No. 96/30057, using goat anti-human IgG polyclonal antibody conjugated to peroxidase.

PBL of SLE patients = test: Production of IL-2 by PBL in presence of mAb or peptides (CTLD cells); assay type: cell-based, human
Procedure: (§3) PBL were isolated from blood of SLE patients or healthy controls using ficol gradient, and were incubated as in Example 11. A sample of 50 μl was removed 24 hr after the assay was started, and incubated in the presence of IL-2 sensitive cells (CTLD) for 24 hr, after which ^3H-thymidine was added for 16 hr, and the plates were harvested and counted on a beta counter.

PBL of healthy controls = test: as above; assay type: cell-based, human
Procedure: as §3

[3] = system: PBL of SLE patients stimulated with human 16/6Id mAb; assay type: cell-based; details: for inhibition of proliferative responses to human 16/6Id mAb: PBL of one SLE patient; for Percent Inhibition of proliferation: highest positive inhibition, peptide 50 or 100 μg/well
Procedure: Cells were then harvested and radioactivity was counted using a β-counter. Results were expressed as mean counts per minute (cpm) of triplicate cultures. Stimulation indices (the ratio of mean cpm at the optimal concentration of 16/6Id to mean cpm without 16/6Id) were then calculated. A stimulation index (SI)≧2 was considered positive. […] Inhibition of above 50% of the proliferative capacity was considered positive. The Table represents the highest positive inhibition capacity for each peptide. […] Both peptides inhibited the proliferation of PBL of 18/19(95%) of responders tested. It can also be seen in the Table that the magnitudes of inhibitions were similar for both peptides. Thus, it can be concluded that peptides based on CDR1 and CDR3 of the human 16/6Id mAb are efficient inhibitors of the proliferation of PBL of SLE patients to the human 16/6Id mAb.

[4] = system: PBL of SLE patients stimulated with phytohemagglutinin (PHA); test: Proliferation of PBL stimulated with mitogen PHA; assay type: cell-based, human; details: PHA 2 μg/ml; PBL of one SLE patient, FIG. 9
Procedure: To this end the peptides hCDR1 or hCDR3 were added to cultures of PBL of SLE patients that were stimulated with the mitogen phytohemagglutinin (PHA, 2 μg/ml).

[5] = system: IL-2 secretion by PBL of SLE patients; test: Inhibition of IL-2 secretion by PBL stimulated with human 16/6Id mAb (CTLL line); assay type: cell-based
Procedure: It was of interest to find out whether the hCDR peptides are capable of inhibiting IL-2 secretion by PBL of SLE patients following stimulation with the human 16/6Id mAb. […] To this end, PBL of SLE patients were incubated with the human 16/6Id mAb in the absence or presence of the peptides hCDR1 or hCDR3. Supernatants of the cultures were collected following 48 hours of incubation. Assays to determine levels of IL-2 in the supernatants were performed using the CTLL IL-2 dependent line. Briefly, cells of the CTLL line (2×10^4/well) were incubated in the presence of the different supernatants for 24 hours, followed by the addition of ^3H-thymidine for an additional 18-hour incubation period. Cells were then harvested and radioactivity counted using a β-counter. Results were calculated based on recombinant human IL-2 used as a standard. The ability of the peptides to inhibit the IL-2 secretion of PBL of 23 responders stimulated by the human 16/6 Id was tested. […] Inhibition of proliferative responses of PBL directly correlated with IL-2 inhibition by the CDR-based peptides.

[6] = system: TGF-β secretion by PBL of SLE patients; test: Up-regulation of TGF-β secretion by PBL stimulated with human 16/6Id mAb (ELISA); assay type: cell-based
Procedure: For this purpose, supernatants were removed from cultures of PBL of various SLE patients following 48 hours incubation with the human 16/6Id mAb in the absence or presence of the peptides hCDR1 or hCDR3. TGF-β was determined by ELISA according to the manufacturer's instructions. Briefly, Maxisorb plates (Nunc) were coated with recombinant human TGFβsRII/Fc chimera (R & D Systems) diluted in PBS (100 ng/ml). After blocking, cell supernatants were added. After 18 hours incubation the detecting biotinylated anti-human TGF-β antibody (R & D Systems) was added. The substrate solution used was the TMB Colour Reagent (Helix Diagnostics) and enzyme activity was evaluated by the MRX ELISA reader using the 570 nm and 630 nm filters.

Substance: EINPSTGGTTYNQKFKAKAT (EINPSTGGTTYNQKFKAKAT) [pep IIa, based on CDR2 of the VH chain of mAb 5G12]
- number of responders / tested (proliferation) (PBL from SLE patients): 3/32
- percentage of responders (proliferation) (PBL from SLE patients): 9%
- number of responders / tested (proliferation) [1]: 7/25
- percentage of responders (proliferation) [1]: 28%
- levels of serum antibodies binding the coated antigen, SLE patients versus healthy controls [2]: significantly higher levels
- number of responders / tested (IL-2 production) (PBL of SLE patients): 3/32
- number of responders / tested (IL-2 production) (PBL of healthy controls): 8/25
- percentage of responders (IL-2 production) (PBL of healthy controls): 32%

Substance: TGYYMQWVKQSPEKSLEWIG [pep Ia]
- number of responders / tested (proliferation) (PBL from SLE patients): 7/32
- percentage of responders (proliferation) (PBL from SLE patients): 21%
- number of responders / tested (proliferation) [1]: 11/25
- percentage of responders (proliferation) [1]: 44%
- levels of serum antibodies binding the coated antigen, SLE patients versus healthy controls [2]: significantly higher levels
- number of responders / tested (IL-2 production) (PBL of SLE patients): 5/32
- percentage of responders (IL-2 production) (PBL of SLE patients): 16%
- number of responders / tested (IL-2 production) (PBL of healthy controls): 14/25
- percentage of responders (IL-2 production) (PBL of healthy controls): 56%

Substance: YYCARFLWEPYAMDYWGQGS (YYCARFLWEPYAMDYWGQGS) [pep IIIa, based on CDR3 of the VH chain of mAb 5G12]
- number of responders / tested (proliferation) (PBL from SLE patients): 10/32
- percentage of responders (proliferation) (PBL from SLE patients): 31%
- number of responders / tested (proliferation) [1]: 15/25
- percentage of responders (proliferation) [1]: 60%
- levels of serum antibodies binding the coated antigen, SLE patients versus healthy controls [2]: significantly higher levels
- number of responders / tested (IL-2 production) (PBL of SLE patients): 5/32
- percentage of responders (IL-2 production) (PBL of SLE patients): 16%
- number of responders / tested (IL-2 production) (PBL of healthy controls): 16/25
- percentage of responders (IL-2 production) (PBL of healthy controls): 64%
- inhibition of proliferative responses to human 16/6Id mAb ([3]; FIG. 10): did not inhibit

Substance: YYCARGLLRGGWNDVDYYGMDV [hCDR3, peptide based on CDR3 of the human 16/6Id mAb]
- inhibition of proliferative responses to mitogen PHA [4]: could not inhibit
- patients whose PBL IL-2 secretion was inhibited / tested ([5]; 23 responders): 19/23
- Maximum inhibition % ([5]; IL-2 secretion with 16/6 Id alone = 100%): 78 ± 34%
- Inhibitory Activity* % (patients with inhibition of 50% or more) ([5]; PBL of 23 responders): 83 (19/23) %
- inhibition of IL-2 secretion ([5]; PBL of one SLE patient, FIG. 12): 100%
- Up-Regulation of TGF-β % (patients) ([6]; PBL of SLE patients, 48 hours): 100 (19/19) %
- secretion of TGF-β ([6]; PBL of one representative SLE patient, FIG. 13): significant up-regulation
- Maximum Up-regulation % ([6]; percent secretion above that in the presence of 16/6 Id alone (= 100%)): 338 ± 242%
- inhibition of proliferative responses to human 16/6Id mAb ([3]; FIG. 10): inhibited efficiently
- inhibition of proliferative responses to human 16/6Id mAb ([3]; FIG. 11): did inhibit efficiently
- Percent Inhibition of proliferation ([3]; SLE patient Number 1): <50%
- Percent Inhibition of proliferation ([3]; SLE patient Number 2): 75%
- Percent Inhibition of proliferation ([3]; SLE patient Number 3): <50%
- Percent Inhibition of proliferation ([3]; SLE patient Number 4): <50%
- Percent Inhibition of proliferation ([3]; SLE patient Number 5): 87.5%
- Percent Inhibition of proliferation ([3]; SLE patient Number 6): 80%
- Percent Inhibition of proliferation ([3]; SLE patient Number 7): 70.4%
- Percent Inhibition of proliferation ([3]; SLE patient Number 8): 56%
- Percent Inhibition of proliferation ([3]; SLE patient Number 9): 65%
- Percent Inhibition of proliferation ([3]; SLE patient Number 10): 71.8%
- Percent Inhibition of proliferation ([3]; SLE patient Number 11): 72%
- Percent Inhibition of proliferation ([3]; SLE patient Number 12): 86%
- Percent Inhibition of proliferation ([3]; SLE patient Number 13): 64%
- Percent Inhibition of proliferation ([3]; SLE patient Number 14): 74%
- Percent Inhibition of proliferation ([3]; SLE patient Number 15): 69%
- Percent Inhibition of proliferation ([3]; SLE patient Number 16): 68%
- Percent Inhibition of proliferation ([3]; SLE patient Number 17): 77.8%
- Percent Inhibition of proliferation ([3]; SLE patient Number 18): <50%
- Percent Inhibition of proliferation ([3]; SLE patient Number 19): 60.8%
- responders whose PBL proliferation was inhibited (above 50%) ([3]; of the 19 responders tested): 78.9%
- Percent Inhibition of proliferation, Mean ± SD ([3]; over patients with positive inhibition (above 50%)): 71.82 ± 8.44%
